Measurements from PubChem BioAssay AID248 (DTP/NCI, 2004).
Several values for one entry are separate records, joined by “and”; a condition that tells them apart may be missing. Equal values may be shown once. Toxic doses and inconclusive results are not listed.

Tested on: L1210 leukemia ip in BDF1 mice, survival T/C
Experiment: NCI In Vivo Anticancer Drug Screen. Data for tumor model L1210 Leukemia (intraperitoneal) in B6D2F1 (BDF1) mice
Conditions: endpoint: mean survival time, higher = longer survival
Summary of the method: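 Read-out is survival time, reported as the treated-group measurement over the vehicle-control measurement.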

[1] = dose: 100.0 mg/kg/injection, schedule: Q01DX001 (ip), vehicle: saline
[2] = dose: 100.0 mg/kg/injection, schedule: Q01DX009 (ip), vehicle: saline
[3] = dose: 200.0 mg/kg/injection, schedule: Q01DX001 (ip), vehicle: saline
[4] = dose: 200.0 mg/kg/injection, schedule: Q01DX009 (ip), vehicle: saline
[5] = dose: 400.0 mg/kg/injection, schedule: Q01DX001 (ip), vehicle: saline
[6] = dose: 100.0 mg/kg/injection, schedule: Q01DX009 (ip), vehicle: Klucel (hydroxypropylcellulose) (HPC)
[7] = dose: 200.0 mg/kg/injection, schedule: Q01DX009 (ip), vehicle: Klucel (hydroxypropylcellulose) (HPC)
[8] = dose: 400.0 mg/kg/injection, schedule: Q01DX009 (ip), vehicle: Klucel (hydroxypropylcellulose) (HPC)
[9] = dose: 100.0 mg/kg/injection, schedule: Q01DX009 (ip), vehicle: saline with Tween-80
[10] = dose: 100.0 mg/kg/injection, schedule: Q04DX003 (ip), vehicle: saline with Tween-80
[11] = dose: 200.0 mg/kg/injection, schedule: Q01DX009 (ip), vehicle: saline with Tween-80
[12] = dose: 200.0 mg/kg/injection, schedule: Q04DX003 (ip), vehicle: saline with Tween-80
[13] = dose: 400.0 mg/kg/injection, schedule: Q01DX009 (ip), vehicle: saline with Tween-80
[14] = dose: 400.0 mg/kg/injection, schedule: Q04DX003 (ip), vehicle: saline with Tween-80
[15] = dose: 100.0 mg/kg/injection, schedule: Q04DX002 (ip), vehicle: Klucel (hydroxypropylcellulose) (HPC)
[16] = dose: 200.0 mg/kg/injection, schedule: Q04DX002 (ip), vehicle: Klucel (hydroxypropylcellulose) (HPC)
[17] = dose: 100.0 mg/kg/injection, schedule: Q04DX003 (ip), vehicle: saline
[18] = dose: 200.0 mg/kg/injection, schedule: Q04DX003 (ip), vehicle: saline
[19] = dose: 400.0 mg/kg/injection, schedule: Q04DX003 (ip), vehicle: saline
[20] = dose: 50.0 mg/kg/injection, schedule: Q01DX009 (ip), vehicle: saline with Tween-80
[21] = dose: 50.0 mg/kg/injection, schedule: Q01DX009 (ip), vehicle: saline
[22] = dose: 100.0 mg/kg/injection, schedule: Q01DX001 (ip), vehicle: Klucel (hydroxypropylcellulose) (HPC)
[23] = dose: 200.0 mg/kg/injection, schedule: Q01DX001 (ip), vehicle: Klucel (hydroxypropylcellulose) (HPC)

## O=C1OC(=O)C2C1C1c3ccccc3C13c1ccccc1C23 (configuration not stated)
[1]
  T/C: 92 % of control
[2]
  T/C: 110 % of control
[3]
  T/C: 94 % of control
[4]
  T/C: 100 % of control
[5]
  T/C: 97 % of control
dose: 400.0 mg/kg/injection, schedule: Q01DX009 (ip), vehicle: saline
  T/C: 89 % of control

## O=C(Nc1ccc(Cl)c([N+](=O)[O-])c1)N(CC(O)c1ccccc1)C1CCCCC1 (configuration not stated)
[6]
  T/C: 93 % of control
[7]
  T/C: 93 % of control
[8]
  T/C: 87 % of control

## N#Cc1ccc(Cc2ccc(C#N)cc2)cc1
[9]
  T/C: 95 % of control
[10]
  T/C: 95 % of control
[11]
  T/C: 97 % of control
[12]
  T/C: 101 % of control
[13]
  T/C: 100 % of control
[14]
  T/C: 106 % of control

## CNC(=O)O/N=C/c1cccc(OC)c1
[9]
  T/C: 93 % of control
[11]
  T/C: 100 % of control
[13]
  T/C: 95 % of control

## COc1ccc(COC(=O)Nc2ccccc2C(F)(F)F)cc1
dose: 100.0 mg/kg/injection, schedule: Q01DX009 (ip), vehicle: gum acacia
  T/C: 89 % of control
dose: 200.0 mg/kg/injection, schedule: Q01DX009 (ip), vehicle: gum acacia
  T/C: 89 % of control

## C[C@@]1(C(=O)O)CC2C=CC1C2 (some centres not stated)
[15]
  T/C: 96 % of control
[16]
  T/C: 96 % of control
dose: 400.0 mg/kg/injection, schedule: Q04DX002 (ip), vehicle: Klucel (hydroxypropylcellulose) (HPC)
  T/C: 93 % of control

## COC(=O)C1(C)CCCC2(C)C1CCC13OCC(CC21)C1(C(C)C)OC31 (configuration not stated)
[9]
  T/C: 96 % of control
[11]
  T/C: 93 % of control
[13]
  T/C: 95 % of control

## C[Si](C)O[Si](C)C
[17]
  T/C: 91 % of control
[18]
  T/C: 101 % of control
[19]
  T/C: 101 % of control

## N=c1ccn(CC(Cl)COc2ccccc2)cc1 (configuration not stated)
dose: 5.0 mg/kg/injection, schedule: Q01DX001 (ip), vehicle: saline
  T/C: 103 % of control
dose: 10.0 mg/kg/injection, schedule: Q01DX001 (ip), vehicle: saline
  T/C: 105 % of control
dose: 20.0 mg/kg/injection, schedule: Q01DX001 (ip), vehicle: saline
  T/C: 105 % of control
dose: 40.0 mg/kg/injection, schedule: Q01DX001 (ip), vehicle: saline
  T/C: 100 % of control
dose: 80.0 mg/kg/injection, schedule: Q01DX001 (ip), vehicle: saline
  T/C: 105 % of control
[1]
  T/C: 101 % of control

## O=C(Nc1ccc2c(c1)OCO2)O/N=C\c1ccccn1
[20]
  T/C: 103 % of control
[9]
  T/C: 86 % of control and 92 % of control
[10]
  T/C: 100 % of control
[11]
  T/C: 86 % of control and 92 % of control
[12]
  T/C: 101 % of control
[13]
  T/C: 91 % of control
[14]
  T/C: 95 % of control

## CC(=O)Nc1ccc[n+](C)c1
[17]
  T/C: 108 % of control
[18]
  T/C: 105 % of control
[19]
  T/C: 100 % of control

## CN(C)C/C=C/COC(=O)C(C)(C)C
dose: 75.0 mg/kg/injection, schedule: Q01DX001 (ip), vehicle: saline
  T/C: 93 % of control
dose: 150.0 mg/kg/injection, schedule: Q01DX001 (ip), vehicle: saline
  T/C: 97 % of control
dose: 300.0 mg/kg/injection, schedule: Q01DX001 (ip), vehicle: saline
  T/C: 87 % of control

## CCNC(=O)c1cc2cccc(OC)c2oc1=N
[17]
  T/C: 105 % of control
[18]
  T/C: 97 % of control
[19]
  T/C: 90 % of control

## CCC(CC)(CC)OC(=O)NS(=O)(=O)c1ccc(Cl)cc1
dose: 100.0 mg/kg/injection, schedule: Q01DX009 (ip), vehicle: acetone
  T/C: 107 % of control
[10]
  T/C: 120 % of control
[12]
  T/C: 104 % of control
[14]
  T/C: 109 % of control

## O=C(O)/C=C\c1c[nH]c2nccnc12
dose: 25.0 mg/kg/injection, schedule: Q01DX009 (ip), vehicle: saline
  T/C: 101 % of control
dose: 25.0 mg/kg/injection, schedule: Q04DX003 (ip), vehicle: saline
  T/C: 117 % of control
[21]
  T/C: 88 % of control
dose: 50.0 mg/kg/injection, schedule: Q04DX003 (ip), vehicle: saline
  T/C: 115 % of control
[17]
  T/C: 103 % of control and 106 % of control

## COc1ccccc1-n1c(O)c(N=Nc2ccc(C)cc2)c(=O)n(-c2ccc(Cl)cc2)c1=S
[22]
  T/C: 106 % of control
[23]
  T/C: 100 % of control

## CCN(CC)CCSSCCN(CC)CC
dose: 50.0 mg/kg/injection, schedule: Q01DX001 (ip), vehicle: saline
  T/C: 88 % of control
[1]
  T/C: 96 % of control

## Oc1ccccc1C=Nc1ccc(N=Cc2ccccc2O)cc1
[1]
  T/C: 101 % of control
[3]
  T/C: 95 % of control
[5]
  T/C: 106 % of control

## C=CCc1ccc(C)c(C)c1O
dose: 100.0 mg/kg/injection, schedule: Q01DX009 (sc), vehicle: olive oil, sesame oil, peanut oil
  T/C: 101 % of control
dose: 100.0 mg/kg/injection, schedule: Q04DX003 (sc), vehicle: olive oil, sesame oil, peanut oil
  T/C: 99 % of control
dose: 200.0 mg/kg/injection, schedule: Q01DX009 (sc), vehicle: olive oil, sesame oil, peanut oil
  T/C: 101 % of control
dose: 200.0 mg/kg/injection, schedule: Q04DX003 (sc), vehicle: olive oil, sesame oil, peanut oil
  T/C: 97 % of control
dose: 400.0 mg/kg/injection, schedule: Q01DX009 (sc), vehicle: olive oil, sesame oil, peanut oil
  T/C: 101 % of control
dose: 400.0 mg/kg/injection, schedule: Q04DX003 (sc), vehicle: olive oil, sesame oil, peanut oil
  T/C: 91 % of control

## NC(N)=NCCCCCC(=O)Oc1ccc([N+](=O)[O-])cc1
[21]
  T/C: 105 % of control
[2]
  T/C: 99 % of control and 100 % of control
[17]
  T/C: 92 % of control
[4]
  T/C: 100 % of control and 101 % of control
[18]
  T/C: 92 % of control

## O=NN(CCCl)C(=O)Nc1ccc(Br)cn1
dose: 3.0 mg/kg/injection, schedule: Q01DX009 (ip), vehicle: carboxymethylcellulose (CMC)
  T/C: 97 % of control
dose: 6.0 mg/kg/injection, schedule: Q01DX009 (ip), vehicle: carboxymethylcellulose (CMC)
  T/C: 103 % of control
dose: 10.0 mg/kg/injection, schedule: Q01DX009 (ip), vehicle: carboxymethylcellulose (CMC)
  T/C: 186 % of control
dose: 12.0 mg/kg/injection, schedule: Q01DX009 (ip), vehicle: carboxymethylcellulose (CMC)
  T/C: 119 % of control
dose: 15.0 mg/kg/injection, schedule: Q01DX009 (ip), vehicle: carboxymethylcellulose (CMC)
  T/C: 154 % of control
dose: 22.5 mg/kg/injection, schedule: Q01DX009 (ip), vehicle: carboxymethylcellulose (CMC)
  T/C: 158 % of control
dose: 29.0 mg/kg/injection, schedule: Q01DX009 (ip), vehicle: carboxymethylcellulose (CMC)
  T/C: 157 % of control
dose: 66.0 mg/kg/injection, schedule: Q01DX001 (ip), vehicle: carboxymethylcellulose (CMC)
  T/C: 151 % of control
dose: 100.0 mg/kg/injection, schedule: Q01DX001 (ip), vehicle: carboxymethylcellulose (CMC)
  T/C: 150 % of control and 173 % of control
dose: 150.0 mg/kg/injection, schedule: Q01DX001 (ip), vehicle: carboxymethylcellulose (CMC)
  T/C: 102 % of control and 109 % of control

## CC(C)CC(C)c1c(N)nc(N)[nH]c1=O (configuration not stated)
[22]
  T/C: 97 % of control
[23]
  T/C: 103 % of control
dose: 400.0 mg/kg/injection, schedule: Q01DX001 (ip), vehicle: Klucel (hydroxypropylcellulose) (HPC)
  T/C: 109 % of control

## FC(F)(F)c1nc2cccc3c2n1CCC3
[20]
  T/C: 93 % of control
[9]
  T/C: 87 % of control
[10]
  T/C: 97 % of control
[11]
  T/C: 101 % of control
[12]
  T/C: 96 % of control

## CC(O)(c1ccncc1)c1cc2ccccc2n1S(=O)(=O)c1ccccc1 (configuration not stated)
[15]
  T/C: 95 % of control
[16]
  T/C: 87 % of control

## Cc1cc(C)nc(CCSS(=O)(=O)O)c1
[1]
  T/C: 104 % of control
[3]
  T/C: 102 % of control
[5]
  T/C: 98 % of control

## C=CC1CCC2OC(=O)C(=C)C2C1 (configuration not stated)
[17]
  T/C: 101 % of control
[18]
  T/C: 95 % of control
[19]
  T/C: 101 % of control

## Cc1nc2cccc3ccc4cc5ccccc5c1c4c32
[10]
  T/C: 89 % of control
[12]
  T/C: 93 % of control

## BrC1CCCCCC(Br)C12OCCO2 (configuration not stated)
[6]
  T/C: 95 % of control
dose: 100.0 mg/kg/injection, schedule: Q04DX003 (ip), vehicle: Klucel (hydroxypropylcellulose) (HPC)
  T/C: 102 % of control
[7]
  T/C: 98 % of control
dose: 200.0 mg/kg/injection, schedule: Q04DX003 (ip), vehicle: Klucel (hydroxypropylcellulose) (HPC)
  T/C: 104 % of control
[8]
  T/C: 101 % of control
dose: 400.0 mg/kg/injection, schedule: Q04DX003 (ip), vehicle: Klucel (hydroxypropylcellulose) (HPC)
  T/C: 100 % of control
